Experimental data taken from the supplement of paper PMC10307832.

Assays:
Assay in all cases: relative viability (nuclei count vs DMSO), 5 days (fraction); higher = more cells survive
IA-LM = system: IA-LM
Method in brief: (§1)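 After 5 days of treatment, lung cancer cells in 1536-well plates were fixed and stained in a single step (final 0.05% Triton X-100, 1% formaldehyde, 1 ug/ml Hoechst) and their nuclei counted on 4× images. Treatment had been applied by pin tool the day after seeding as one drug alone or as a fixed anchor-drug dose with five library-drug doses (not always all listed) in √10 steps. Relative viability is the nuclei count of treated wells divided by that of vehicle wells, and values are medians of duplicate plates.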

ABC-1 = system: ABC-1
Method in brief: as §1

NCI-H2126 = system: NCI-H2126
Method in brief: as §1

NCI-H1299 = system: NCI-H1299
Method in brief: as §1

NCI-H1703 = system: NCI-H1703
Method in brief: as §1

EKVX = system: EKVX
Method in brief: as §1

NCI-H2085 = system: NCI-H2085
Method in brief: as §1

EBC-1 = system: EBC-1
Method in brief: as §1

Calu-6 = system: Calu-6
Method in brief: as §1

NCI-H1993 = system: NCI-H1993
Method in brief: as §1

RERF-LC-KJ = system: RERF-LC-KJ
Method in brief: as §1

HCC-44 = system: HCC-44
Method in brief: as §1

A549 = system: A549
Method in brief: as §1

Cc1sc2c(c1C)C(c1ccc(Cl)cc1)=N[C@@H](CC(=O)OC(C)(C)C)c1nnc(C)n1-2 [JQ1] + C[C@@H](Oc1cc(-c2cnn(C3CCNCC3)c2)cnc1N)c1c(Cl)ccc(F)c1Cl [Crizotinib] (partner 1 µM)
relative viability (IA-LM; first compound 0.04 µM): 0.672
relative viability (IA-LM; first compound 0.1265 µM): 0.3
relative viability (IA-LM; first compound 0.4 µM): 0.147
relative viability (IA-LM; first compound 1.265 µM): 0.101
relative viability (IA-LM; first compound 4 µM): 0.108
relative viability (ABC-1; first compound 0.04 µM): 0.844
relative viability (ABC-1; first compound 0.1265 µM): 1.09
relative viability (ABC-1; first compound 0.4 µM): 0.988
relative viability (ABC-1; first compound 1.265 µM): 0.569
relative viability (ABC-1; first compound 4 µM): 0.276
relative viability (NCI-H2126; first compound 0.04 µM): 1.04
relative viability (NCI-H2126; first compound 0.1265 µM): 0.987
relative viability (NCI-H2126; first compound 0.4 µM): 0.901
relative viability (NCI-H2126; first compound 1.265 µM): 0.966
relative viability (NCI-H2126; first compound 4 µM): 0.754
relative viability (NCI-H1299; first compound 0.04 µM): 0.932
relative viability (NCI-H1299; first compound 0.1265 µM): 0.768
relative viability (NCI-H1299; first compound 0.4 µM): 0.707
relative viability (NCI-H1299; first compound 1.265 µM): 0.352
relative viability (NCI-H1299; first compound 4 µM): 0.279
relative viability (NCI-H1703; first compound 0.04 µM): 0.611
relative viability (NCI-H1703; first compound 0.1265 µM): 0.438
relative viability (NCI-H1703; first compound 0.4 µM): 0.464
relative viability (NCI-H1703; first compound 1.265 µM): 0.286
relative viability (NCI-H1703; first compound 4 µM): 0.302
relative viability (EKVX; first compound 0.04 µM): 0.713
relative viability (EKVX; first compound 0.1265 µM): 0.749
relative viability (EKVX; first compound 0.4 µM): 0.938
relative viability (EKVX; first compound 1.265 µM): 0.707
relative viability (EKVX; first compound 4 µM): 0.489
relative viability (NCI-H2085; first compound 0.04 µM): 0.745
relative viability (NCI-H2085; first compound 0.1265 µM): 0.629
relative viability (NCI-H2085; first compound 0.4 µM): 0.651
relative viability (NCI-H2085; first compound 1.265 µM): 0.458
relative viability (NCI-H2085; first compound 4 µM): 0.448
relative viability (EBC-1; first compound 0.04 µM): 0.214
relative viability (EBC-1; first compound 0.1265 µM): 0.187
relative viability (EBC-1; first compound 0.4 µM): 0.154
relative viability (EBC-1; first compound 1.265 µM): 0.105
relative viability (EBC-1; first compound 4 µM): 0.13
relative viability (Calu-6; first compound 0.04 µM): 0.737
relative viability (Calu-6; first compound 0.1265 µM): 0.546
relative viability (Calu-6; first compound 0.4 µM): 0.62
relative viability (Calu-6; first compound 1.265 µM): 0.342
relative viability (Calu-6; first compound 4 µM): 0.183
relative viability (NCI-H1993; first compound 0.04 µM): 0.834
relative viability (NCI-H1993; first compound 0.1265 µM): 0.774
relative viability (NCI-H1993; first compound 0.4 µM): 0.728
relative viability (NCI-H1993; first compound 1.265 µM): 0.799
relative viability (NCI-H1993; first compound 4 µM): 0.698
relative viability (RERF-LC-KJ; first compound 0.04 µM): 0.783
relative viability (RERF-LC-KJ; first compound 0.1265 µM): 0.879
relative viability (RERF-LC-KJ; first compound 0.4 µM): 0.777
relative viability (RERF-LC-KJ; first compound 1.265 µM): 0.635
relative viability (RERF-LC-KJ; first compound 4 µM): 0.29
relative viability (HCC-44; first compound 0.04 µM): 0.822
relative viability (HCC-44; first compound 0.1265 µM): 0.623
relative viability (HCC-44; first compound 0.4 µM): 0.397
relative viability (HCC-44; first compound 1.265 µM): 0.277
relative viability (HCC-44; first compound 4 µM): 0.243
relative viability (A549; first compound 0.04 µM): 0.766
relative viability (A549; first compound 0.1265 µM): 0.521
relative viability (A549; first compound 0.4 µM): 0.558
relative viability (A549; first compound 1.265 µM): 0.233
relative viability (A549; first compound 4 µM): 0.125

Cc1sc2c(c1C)C(c1ccc(Cl)cc1)=N[C@@H](CC(=O)OC(C)(C)C)c1nnc(C)n1-2 [JQ1] + C[C@]1(O)C[C@@H](c2nc(-c3ccc4ccc(-c5ccccc5)nc4c3)c3c(N)nccn32)C1 [Linsitinib] (partner 1 µM)
relative viability (IA-LM; first compound 0.04 µM): 0.406
relative viability (IA-LM; first compound 0.1265 µM): 0.098
relative viability (IA-LM; first compound 0.4 µM): 0.153
relative viability (IA-LM; first compound 1.265 µM): 0.106
relative viability (IA-LM; first compound 4 µM): 0.0793
relative viability (ABC-1; first compound 0.04 µM): 0.716
relative viability (ABC-1; first compound 0.1265 µM): 0.772
relative viability (ABC-1; first compound 0.4 µM): 0.564
relative viability (ABC-1; first compound 1.265 µM): 0.356
relative viability (ABC-1; first compound 4 µM): 0.275
relative viability (NCI-H2126; first compound 0.04 µM): 0.725
relative viability (NCI-H2126; first compound 0.1265 µM): 1.52
relative viability (NCI-H2126; first compound 0.4 µM): 0.651
relative viability (NCI-H2126; first compound 1.265 µM): 0.559
relative viability (NCI-H2126; first compound 4 µM): 0.432
relative viability (NCI-H1299; first compound 0.04 µM): 0.97
relative viability (NCI-H1299; first compound 0.1265 µM): 0.781
relative viability (NCI-H1299; first compound 0.4 µM): 0.883
relative viability (NCI-H1299; first compound 1.265 µM): 0.36
relative viability (NCI-H1299; first compound 4 µM): 0.238
relative viability (NCI-H1703; first compound 0.04 µM): 0.95
relative viability (NCI-H1703; first compound 0.4 µM): 0.404
relative viability (NCI-H1703; first compound 1.265 µM): 0.33
relative viability (NCI-H1703; first compound 4 µM): 0.396
relative viability (EKVX; first compound 0.04 µM): 0.935
relative viability (EKVX; first compound 0.1265 µM): 0.813
relative viability (EKVX; first compound 0.4 µM): 1.01
relative viability (EKVX; first compound 1.265 µM): 0.72
relative viability (EKVX; first compound 4 µM): 0.461
relative viability (NCI-H2085; first compound 0.04 µM): 0.99
relative viability (NCI-H2085; first compound 0.1265 µM): 0.652
relative viability (NCI-H2085; first compound 0.4 µM): 0.642
relative viability (NCI-H2085; first compound 1.265 µM): 0.687
relative viability (NCI-H2085; first compound 4 µM): 0.453
relative viability (EBC-1; first compound 0.04 µM): 0.8
relative viability (EBC-1; first compound 0.1265 µM): 0.523
relative viability (EBC-1; first compound 0.4 µM): 0.332
relative viability (EBC-1; first compound 1.265 µM): 0.112
relative viability (EBC-1; first compound 4 µM): 0.112
relative viability (Calu-6; first compound 0.04 µM): 0.931
relative viability (Calu-6; first compound 0.1265 µM): 0.793
relative viability (Calu-6; first compound 0.4 µM): 0.905
relative viability (Calu-6; first compound 1.265 µM): 0.639
relative viability (Calu-6; first compound 4 µM): 0.313
relative viability (NCI-H1993; first compound 0.04 µM): 0.729
relative viability (NCI-H1993; first compound 0.1265 µM): 0.855
relative viability (NCI-H1993; first compound 0.4 µM): 0.809
relative viability (NCI-H1993; first compound 1.265 µM): 0.829
relative viability (NCI-H1993; first compound 4 µM): 0.736
relative viability (RERF-LC-KJ; first compound 0.04 µM): 0.865
relative viability (RERF-LC-KJ; first compound 0.1265 µM): 1.07
relative viability (RERF-LC-KJ; first compound 0.4 µM): 0.91
relative viability (RERF-LC-KJ; first compound 1.265 µM): 0.782
relative viability (RERF-LC-KJ; first compound 4 µM): 0.631
relative viability (HCC-44; first compound 0.04 µM): 0.704
relative viability (HCC-44; first compound 0.1265 µM): 0.448
relative viability (HCC-44; first compound 0.4 µM): 0.32
relative viability (HCC-44; first compound 1.265 µM): 0.31
relative viability (HCC-44; first compound 4 µM): 0.283
relative viability (A549; first compound 0.04 µM): 0.613
relative viability (A549; first compound 0.1265 µM): 0.534
relative viability (A549; first compound 0.4 µM): 0.561
relative viability (A549; first compound 1.265 µM): 0.314
relative viability (A549; first compound 4 µM): 0.226
